# Experimental data taken from ChEMBL document CHEMBL1641584 (Bioorg Med Chem Lett, 2011).
# Activity calls are given as the source filed them. No cut-off for these calls is given here.
# Assays:
# [1] = Inhibition of guinea pig protein-glutamine gamma-glutamyltransferase 2 assessed as fluorescent intensity of monodansyl cadaverine; parameters: species or system Cavia porcellus
# Cavia porcellus = species: Cavia porcellus; experiment: Inhibition of guinea pig protein-glutamine gamma-glutamyltransferase 2-mediated amyloid-beta oligomerization at 0.1 to 10 uM
IC50 [1] [nM],inhibition (Cavia porcellus),Compound
3600,–,COC(=O)C(CCSSCCC(NCCC(=O)c1cccs1)C(=O)OC)NCCC(=O)c1cccs1 (stereo not drawn)
100,–,COC(=O)C(CCSSCCC(NCCC(=O)c1ccc(I)s1)C(=O)OC)NCCC(=O)c1ccc(I)s1 (stereo not drawn)
–,Active,NNC(=O)CSc1nc2sc3c(c2c(=O)n1-c1cccc(F)c1)C(c1ccccc1)CCC3 (stereo not drawn)
120,–,O=C(CCNCCSSCCNCCC(=O)c1ccc(Br)cc1)c1ccc(Br)cc1
2000,–,O=C(CCNCCSSCCNCCC(=O)c1ccc2ccccc2c1)c1ccc2ccccc2c1
1600,–,COC(=O)C(CCSSCCC(NCCC(=O)c1ccc(Br)cc1)C(=O)OC)NCCC(=O)c1ccc(Br)cc1 (stereo not drawn)
120,–,COC(=O)C(CCSSCCC(NCCC(=O)c1cc2ccccc2s1)C(=O)OC)NCCC(=O)c1cc2ccccc2s1 (stereo not drawn)
2900,–,COC(=O)C(CSSCC(NCCC(=O)c1ccco1)C(=O)OC)NCCC(=O)c1ccco1 (stereo not drawn)
5700,–,COC(=O)C(CSSCC(NCCC(=O)c1sccc1Br)C(=O)OC)NCCC(=O)c1sccc1Br (stereo not drawn)
99,–,COC(=O)C(CCSSCCC(NCCC(=O)c1ccc(Br)s1)C(=O)OC)NCCC(=O)c1ccc(Br)s1 (stereo not drawn)
170,–,O=C(CCNCCSSCCNCCC(=O)c1ccc(I)s1)c1ccc(I)s1
120,–,O=C(CCNCCSSCCNCCC(=O)c1ccc(Br)s1)c1ccc(Br)s1
240,–,COC(=O)C(CSSCC(NCCC(=O)c1ccc(I)s1)C(=O)OC)NCCC(=O)c1ccc(I)s1 (stereo not drawn)
1400,–,O=C(CCNCCSSCCNCCC(=O)c1cccnc1)c1cccnc1
330,–,COC(=O)C(CCSSCCC(NCCC(=O)c1sccc1Br)C(=O)OC)NCCC(=O)c1sccc1Br (stereo not drawn)
210,–,O=C(CCNCCSSCCNCCC(=O)c1sccc1Br)c1sccc1Br
2200,–,O=C(CCNCCSSCCNCCC(=O)c1ccccc1)c1ccccc1
400,–,COC(=O)C(CSSCC(NCCC(=O)c1cccs1)C(=O)OC)NCCC(=O)c1cccs1 (stereo not drawn)
11000,–,COC(=O)C(CSSCC(NCCC(=O)c1ccc(Br)cc1)C(=O)OC)NCCC(=O)c1ccc(Br)cc1 (stereo not drawn)

IC50 [1] [nM],inhibition (Cavia porcellus),Compound
1100,–,N#Cc1ccc(C(=O)CCNCCSSCCNCCC(=O)c2ccc(C#N)cc2)cc1
9700,–,COC(=O)C(CSSCC(NCCC(=O)c1nccs1)C(=O)OC)NCCC(=O)c1nccs1 (stereo not drawn)
5500,–,COC(=O)C(CSSCC(NCCC(=O)c1ncccn1)C(=O)OC)NCCC(=O)c1ncccn1 (stereo not drawn)
1600,–,O=C(CCNCCSSCCNCCC(=O)c1ccsc1)c1ccsc1
510,–,O=C(CCNCCSSCCNCCC(=O)c1cccs1)c1cccs1
190,–,COC(=O)C(CSSCC(NCCC(=O)c1ccc(Cl)s1)C(=O)OC)NCCC(=O)c1ccc(Cl)s1 (stereo not drawn)
1300,–,COC(=O)C(CSSCC(NCCC(=O)c1ccc(C#N)cc1)C(=O)OC)NCCC(=O)c1ccc(C#N)cc1 (stereo not drawn)
900,–,COC(=O)C(CSSCC(NCCC(=O)c1cc2ccccc2s1)C(=O)OC)NCCC(=O)c1cc2ccccc2s1 (stereo not drawn)
2600,–,O=C(CCNCCSSCCNCCC(=O)c1cccc(Br)n1)c1cccc(Br)n1
4000,–,COC(=O)C(CSSCC(NCCC(=O)c1ncc(C)s1)C(=O)OC)NCCC(=O)c1ncc(C)s1 (stereo not drawn)
1100,–,COC(=O)C(CSSCC(NCCC(=O)c1cccc(Br)n1)C(=O)OC)NCCC(=O)c1cccc(Br)n1 (stereo not drawn)
19000,–,COC(=O)C(CSSCC(NCCC(=O)c1ccc2ccccc2c1)C(=O)OC)NCCC(=O)c1ccc2ccccc2c1 (stereo not drawn)
180,–,COC(=O)C(CSSCC(NCCC(=O)c1ccc(Br)s1)C(=O)OC)NCCC(=O)c1ccc(Br)s1 (stereo not drawn)
420,–,O=C(CCNCCSSCCNCCC(=O)c1ccco1)c1ccco1
170,–,O=C(CCNCCSSCCNCCC(=O)c1cc2ccccc2s1)c1cc2ccccc2s1
3400,–,COC(=O)C(CSSCC(NCCC(=O)c1ccncc1)C(=O)OC)NCCC(=O)c1ccncc1 (stereo not drawn)
120,–,O=C(CCNCCSSCCNCCC(=O)c1ccc(Cl)s1)c1ccc(Cl)s1
890,–,O=C(CCNCCSSCCNCCC(=O)c1ccc(I)cc1)c1ccc(I)cc1
120,–,COC(=O)C(CCSSCCC(NCCC(=O)c1ccc(Cl)s1)C(=O)OC)NCCC(=O)c1ccc(Cl)s1 (stereo not drawn)
